In brackets after ≈: the same amount, converted by molar mass.
Experiments:
HT-29 [1] = assay: Long-term colony formation assay; assay type: cell-based, human; conditions: treated at IC50 dose, colonies after 2 weeks; FIGS. 1A and 1B
Description: To confirm, anticancer effects, selected compounds of invention, PDIA1 inhibitors were tested in long-term colony formation assay. For long-term colony formation assay the human colorectal carcinoma cell lines Caco-2 and HT-29 were maintained as follows: HT-29 in RPMI-1640 with HEPES + OPTI-MEM (1:1) and Caco-2 in Eagle’s medium (all from IIET, Wroclaw, Poland) both culture media were supplemented with 2 mM L-glutamine, 1 mM sodium pyruvate (both from Sigma-Aldrich Chemie GmbH, Steinheim, Germany), fetal bovine serum: 5% HT-29 (GE Healthcare), 20% Caco-2 (Sigma-Aldrich Chemie GmbH, Steinheim, Germany), 100 U/ml penicillin, 100 µg/ml streptomycin (both from Polfa Tarchomin S.A., Warsaw, Poland). All cell lines were grown at 37° C. in a humidified atmosphere with 5% CO2. […] The viable cells were counted using a hemocytometer (trypan blue exclusion method) and seeded in triplicates at a density of 5 × 10^2 cells/3 ml and 2.5 × 10^2 cells/3 ml (9.5 cm^2) for Caco-2 and HT-29 respectively. […] After 2 weeks, the colonies were fixed and stained with 1% crystal violet/ethanol (Sigma-Aldrich), documented with Sony Alpha 300 camera (Sony), and counted manually using ImageJ 1.47 software (National Institutes of Health, Bethesda, MD, USA). Surviving fraction (SF) was calculated. […]

Caco-2 [2] = assay: Cell cycle and cell death analysis; assay type: cell-based; conditions: FIG. 1C
Description: (§1) Cell cycle and cell death analysis has been performed as previously described (Milczarek M et al. , 2015). Compounds were tested 5 times independently. Obtained results were analyzed using BD FACSDiva 6.2 software.

MDA-MB-231 [3] = assay: Sulforhodamine B antiproliferative assay, 72 h, normal and hypoxia; assay type: cell-based, human; conditions: Homo sapiens, MDA-MB-231, 72-hour exposition
Summary of the method: (§2)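 Cells at 10^5 cells/mL were given four concentrations within 0.1-100 ug/mL for 72 h at 37° C., under 21% O2 (normal) or <1% O2 (hypoxia). Growth read by sulforhodamine B staining after TCA fixation (A540); MTT (A570) was used for estradiol (200 nM) runs. Mean IC50 ± SD from ≥3 independent triplicate experiments.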

MCF-7 = assay: as above; assay type: cell-based, human; conditions: Homo sapiens, MCF7; hypoxia (<1% of oxygen), 72-hour exposition; read-out: IC50 [µg/ml] MCF-7 hypoxia
Summary of the method: as §2

HT-29 [4] = assay: MTT antiproliferative assay, 72 h; assay type: cell-based; conditions: Homo sapiens, 72 hours exposition, read-out: IC50 [µg/ml] HT-29 normal
Description: (§3) Anticancer activity of PDI A1-inhibitors has been also tested in vitro in antiproliferative essay in normoxic and hypoxic conditions as well in estrogen-stimulated cancer cells. In the experiment, cells were seeded on 96-well plates (Sarstedt, Germany) in appropriate culture medium at a density of 10^5 cells/mL 24 h before adding the tested compounds. Cells were treated with each compound in four concentrations in the range 0.1-100 ug/mL. […] After 72 h of compound treatment at 37° C., 5 % CO2 humid atmosphere and in wo different oxygen level conditions: 21% - normal and <1% - hypoxia. In some experiments, the MDA-MB-231 and MCF-7 cells were seeded with or without 200 nM estradiol and after 24 h the tested compounds were added. A previously described sulforhodamine B antiproliferative assay was used with minor modifications (Skehan P et al., 1990). Briefly, cells were fixed with 50 µL/well of 50% (w/v) trichloroacetic acid (Avantor Performance Materials, Gliwice, Poland). After 1 h incubation, plates were washed several times with tap water and 50 µL of 0.4% (w/v) solution of sulforhodamine B (Sigma-Aldrich, Germany) in 1% (v/v) acetic acid (Avantor Performance Materials, Gliwice, Poland) was added to each well. After 30 min incubation at room temperature, unbound dye was washed out with 1% (v/v) acetic acid, whereas bound dye was solubilized with 10 mM unbuffered TRIS (Avantor Performance Materials, Gliwice, Poland) solution. The entire procedure was performed using a BioTek EL-406 washing station (BioTek Instruments, USA). After additional 30 min, absorbance was read using a Biotek Hybrid H4 reader (BioTek Instruments, USA) at 540 nm wavelength. MTT assay was used alternatively for HL-60 cell line and in the experiment in which estrogens are added (specified in the table legend). Absorbance was measured using a Biotek Hybrid H4 reader at 570 nm wavelength for MTT assay.
(§4) Compounds at each concentration were tested in triplicate in a single experiment and each experiment was repeated at least three times independently.
(§5) Results of in vitro antiproliferative effects are shown in Table 3 and Table 4 and are presented as mean IC50 ± SD calculated using the Prolab-3 system based on Cheburator 0.4 software.
(§6) Statistical analysis: Unpaired t test. *p<0.05 as compared to appropriate cells not pretreated with estradiol. MTT assay was used for antiproliferative activity assessment.

HL-60 = assay: MTT antiproliferative assay, 72 h; assay type: cell-based; conditions: Homo sapiens, 72 hours exposition, read-out: IC50 [µg/ml] HL-60 normal
Description: as §3, §4, §5, §6

HT-29 [5] = assay: Sulforhodamine B antiproliferative assay, 72 h; assay type: cell-based, human; conditions: Homo sapiens, HT-29; normal (21% of oxygen), 72-hour exposition
Summary of the method: as §2

HT-29 [6] = assay: Cell cycle and cell death analysis; assay type: cell-based, human
Description: as §1

MDA-MB-231 [7] = assay: MTT antiproliferative assay, 72 h, with or without estradiol; assay type: cell-based, human; conditions: Homo sapiens, MDA-MB-231, 72 hours exposition, MTT
Description: as §3, §4, §5, §6

HT-29 [8] = assay: Caspase-3/7 activity assay; assay type: cell-based, human; conditions: after 24 and 48 h of incubation; compared to control
Description: (§7) Caspase-3/7 activity assay has been performed as previously described (Milczarek M et al., 2015) after 24 and 48 h of incubation with disclosed compounds. Compounds were tested in triplicate in a single experiment and each experiment was repeated three times independently. Results were normalized to the protein content using the SRB method and reported as mean relative caspase-3/7 activity compared to the control sample ± SD.

Caco-2 [9] = assay: Caspase-3/7 activity assay; assay type: cell-based, human; conditions: after 48 h treatment; compared to control
Description: as §7

What does the source list for `COC(=O)C1CN1S(=O)(=O)c1ccccc1` (centres unmarked) [Compound C-3251, Methyl 1-(benzenesulfonyl)aziridine-2-carboxylate]?
Inhibition of long-term colonies formation, HT-29 (HT-29 [1]): much potent towards HT-29 than CaCo-2 cell line; Cell cycle distribution, CaCo-2 (Caco-2 [2]): increased the percentage of CaCo-2 cells in S cell cycle phase; IC50 (MDA-MB-231 [3]; hypoxia (<1% of oxygen), read-out: IC50 [µg/ml] MDA-MB-231 hypoxia): 26.5 ± 1.3 µg/mL (≈ 110 µM); IC50 (MDA-MB-231 [3]; normal (21% of oxygen), read-out: IC50 [µg/ml] MDA-MB-231 normal): 24 ± 6.4 µg/mL (≈ 99.5 µM); IC50 (MCF-7): 7.9 ± 6.5 µg/mL (≈ 32.7 µM); IC50 (HT-29 [4]): 37.2 ± 8.4 µg/mL (≈ 154 µM); IC50 (HL-60): 1.5 ± 0.1 µg/mL (≈ 6.22 µM); IC50 (HT-29 [5]): 30.2 ± 4.7 µg/mL (≈ 125 µM); Cell cycle distribution, HT-29 (HT-29 [6]; FIG. 1C): decreased HT-29 cells in G0/G1 and increased in G2/M phase; Percentage of death cells, HT-29 (HT-29 [6]; FIG. 1D): increased significantly the percentage of death HT-29 cells; IC50 (MDA-MB-231 [7]; 200 nM estradiol, read-out: IC50 [µg/ml] MDA-MB-231 + estradiol): 29.7 ± 1.9 µg/mL; IC50 (MDA-MB-231 [7]; not pretreated with estradiol, read-out: IC50 [µg/ml] MDA-MB-231 normal): 26.6 ± 2.3 µg/mL (≈ 110 µM); Caspase 3/7 activity, HT-29 (HT-29 [8]): significantly increase caspase 3/7 activity; Caspase 3/7 activity, Caco-2 (Caco-2 [9]): significantly increase caspase 3/7 activity

Reference: patent US20230039836A1, “AROMATIC SULPHONAMIDES DERIVATIVES THAT INHIBITS PDI A3, THEIR SYNTHESIS AND USE” (Uniwersytet Jagiellonski, priority 2020, published 2023)
